Blank lines part the entries; values can stand above or below the compound they belong to.
Key:
[1] = test system: rat hepatocytes; experiment: In vitro metabolic stability in rat hepatocytes (calculated Fmax); assay type: in vitro ADME, Han Wistar rats; conditions: 1 μM, calculated maximal oral bioavailability
Experimental: Determination of in Vitro Metabolic Stability in Rat Hepatocytes (Including Calculation of Hepatic in Vivo Blood Clearance (CL))
Hepatocytes from Han Wistar rats were isolated via a 2-step perfusion method. After perfusion, the liver was carefully removed from the rat: the liver capsule was opened and the hepatocytes were gently shaken out into a Petri dish with ice-cold Williams' medium E (WME). The resulting cell suspension was filtered through sterile gaze in 50 mL falcon tubes and centrifuged at 50×g for 3 min at room temperature. The cell pellet was resuspended in 30 mL WME and centrifuged through a Percoll® gradient for 2 times at 100×g. The hepatocytes were washed again with WME and resuspended in medium containing 5% FCS. Cell viability was determined by trypan blue exclusion. […] The test compound was added to a final concentration of 1 μM. […] Samples were frozen at −20° C. overnight, subsequently centrifuged for 15 minutes at 3000 rpm and the supernatant was analyzed with an Agilent 1200 HPLC-system with LCMS/MS detection.
(§1) The half-life of a test compound was determined from the concentration-time plot. From the half-life (kel: slope of concentration-time plot; half-life=In2/kel) the intrinsic clearances were calculated. Together with the additional parameters liver blood flow, amount of liver cells in vivo and in vitro.
(§2) Metabolic instability is often the main clearance mechanism of xenobiotica leading to a high CL and low bioavailability which may eventually result in a short half-life and a low exposure after oral administration. Thus, reducing the susceptibility of metabolic degradation usually leads to a more favourable pharmacokinetic profile. When using liver microsomes as incubation matrix main phase I metabolic reactions, typically oxidoreductive reactions by cytochrome P450 enzymes and flavin mono-oxygenases (FMO) and hydrolytic reactions by esterases/amidases/epoxidhydrolases, are described. When the incubation of the test compound is performed in a hepatocyte matrix all potential hepatic metabolic processes (phase I and phase II) are covered.

[2] = In vitro metabolic stability in liver microsomes (calculated Fmax); assay type: in vitro ADME, human; conditions: 1 μM, calculated maximal oral bioavailability
Experimental: In Vitro Metabolic Stability Assays Determination of in vitro Metabolic Stability in Microsomes (Including Calculation of Hepatic in vivo Blood Clearance (CL) and of Maximal Oral Bioavailability (Fmax))
The metabolic assay was started shortly afterwards by adding the test compound to the incubation at a final volume of 1 mL. Organic solvent in the incubations was limited to ≤0.01% dimethylsulfoxide (DMSO) and ≤1% acetonitrile. […] Samples were frozen at −20° C. overnight, subsequently centrifuged for 15 minutes at 3000 rpm and the supernatant was analyzed with an Agilent 1200 HPLC-system with LCMS/MS detection.
as §1, with “specific” for “amount of”, “weight and microsomal protein content the hepatic” for “cells”, “vivo blood clearance (CL)” for “vivo”, “the maximal oral bioavailability (Fmax) were calculated for the different species.” for “in vitro.”
as §2

[3] = test system: vaginal hyperalgesia; experiment: Rat dyspareunia model (visceromotor response to vaginal distension); assay type: in vivo, Sprague Dawley rats; conditions: 15 mg/kg oral b.i.d. during 2 weeks
Source text: The visceromotor response (VMR) to vaginal distension was used in conscious animals as an objective measure of vaginal sensitivity. Briefly, animals in estrus phase were surgically implanted with biopsies of left uterine horn (3×3 mm) around alternate cascade mesenteric arteries that supply the small intestine (4 pieces) and on the wall of the distal colon (2 pieces). To measure VMR response, 2 Teflon-coated wire electrodes were sutured in the external oblique abdominal muscle, and tunneled subcutaneously to be exteriorized at the base of the neck for future access. On the day of VMR assessment, a lubricated small balloon (1 cm length) was inserted into the mid-vaginal canal. […] The electrodes were connected to an amplifier (Animal Bio Amp, ADlnstruments), and the abdominal electromyographic signal was recorded using a data acquisition system (PowerLab, ADlnstruments) for off-line analysis using LabChart version 7. The number of abdominal muscle contractions was counted manually for each 0.1 ml distension step, as an index of vaginal pain. […] All data were expressed as mean±standard deviation (s.d.), for the number (n) of measured rats per group. […] Planned comparison of means (matched-volume versus vehicle) was performed using a Bonferroni post hoc test, provided that a main effect was detected. […]

[4] = molecular target: human P2X3 receptor (Homo sapiens (Human), UniProt P56373); experiment: Intracellular calcium measurement (FLIPR, Fluo-4) of antagonist activity at human P2X3 receptor; assay type: cell-based; conditions: human P2X3, FLIPR Fluo-4 calcium, agonist α,β-Me-ATP at EC80; read-out: hP2X3 IC50
Experimental: (§3) Intracellular Calcium Measurement to Assess Antagonist Activity at Human P2X3 and Human P2X2/3 Receptors
(§4) A fluorescent imaging plate reader (FLEX/FLIPR station; Molecular Devices) was used to monitor intracellular calcium levels using the calcium-chelating dye Fluo-4 (Molecular Probes). […] Cells expressing purinergic receptors P2X3 (human) or P2X2/3 (human) were plated at a density of 15,000 cells/well in collagen-coated 384-well plates approximately 20 hours before beginning the assay. […] The test compound was added in a volume of 5 μl and allowed to incubate for 30 min at 37° C. The final assay DMSO concentration is 1%.
(§5) The agonist, α,β-Me-ATP, was added in a volume of 20 μl at a concentration representing the EC80 value. The fluorescence was measured for an interval of 90 sec at 2 sec intervals and analyzed based on the increase in peak relative fluorescence units (RFU) compared to the basal fluorescence. Peak fluorescence was used to determine the response to agonist obtained at each concentration of test compound by the following equation: % Response=100*(RFU(test compound)−RFU(control))/(RFU(DMSO)−RFU(control))
(§6) The Examples were tested in triplicates per plate and mean values were plotted in Excel XLFit to determine IC5o values at the human P2X3 and human P2X2/3 receptors, percentage of maximal inhibition and the Hill coefficients.

[5] = molecular target: human P2X2/3 receptor (Homo sapiens (Human), UniProt P56373+Q9UBL9); experiment: Intracellular calcium measurement (FLIPR, Fluo-4) of antagonist activity at human P2X2/3 receptor; assay type: cell-based; conditions: human P2X2/3, FLIPR Fluo-4 calcium, agonist α,β-Me-ATP at EC80; read-out: hP2X2/3 IC50
Experimental: as §3, §4, §5, §6

[6] = clinical PhII trials; attributed to blockade of P2X2/3 channels; cited from earlier work

Sequence of human P2X3 receptor (P56373 whole entry): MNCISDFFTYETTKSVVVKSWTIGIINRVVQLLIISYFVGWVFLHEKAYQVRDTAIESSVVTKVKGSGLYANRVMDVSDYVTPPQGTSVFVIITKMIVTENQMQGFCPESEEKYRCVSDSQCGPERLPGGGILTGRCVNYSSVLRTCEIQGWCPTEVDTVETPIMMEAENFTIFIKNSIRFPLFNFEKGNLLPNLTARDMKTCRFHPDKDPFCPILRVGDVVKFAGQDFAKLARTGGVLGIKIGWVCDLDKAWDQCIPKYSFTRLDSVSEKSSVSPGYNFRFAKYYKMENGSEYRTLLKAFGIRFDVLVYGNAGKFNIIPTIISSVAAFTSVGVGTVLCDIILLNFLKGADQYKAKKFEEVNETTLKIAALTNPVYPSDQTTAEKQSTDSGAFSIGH
Sequence of human P2X2/3 receptor (P56373 whole entry): as above
Sequence of human P2X2/3 receptor (Q9UBL9 whole entry): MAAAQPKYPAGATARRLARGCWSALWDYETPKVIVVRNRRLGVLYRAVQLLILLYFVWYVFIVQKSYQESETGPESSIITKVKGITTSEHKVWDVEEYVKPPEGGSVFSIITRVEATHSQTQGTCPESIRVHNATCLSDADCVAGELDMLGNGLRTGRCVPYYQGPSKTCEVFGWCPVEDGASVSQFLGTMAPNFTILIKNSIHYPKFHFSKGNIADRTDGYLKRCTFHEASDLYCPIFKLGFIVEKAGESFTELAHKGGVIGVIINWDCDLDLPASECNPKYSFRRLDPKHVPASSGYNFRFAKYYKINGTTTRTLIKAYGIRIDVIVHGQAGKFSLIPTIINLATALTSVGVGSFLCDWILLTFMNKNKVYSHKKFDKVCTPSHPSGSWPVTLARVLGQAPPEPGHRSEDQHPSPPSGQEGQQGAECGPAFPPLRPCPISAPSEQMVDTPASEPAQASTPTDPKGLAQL

Rat hepatocyte Fmax [1]: 53% | Human liver microsome Fmax [2]: 100%
Structure (SMILES): Cc1cnc(-c2cc(OC(C)C(C)O)cc(C(=O)N[C@H](C)c3cnc(C(F)(F)F)nc3)c2)s1 (single isomer, unassigned) [Example 163]

Rat hepatocyte Fmax [1]: 52% | Human liver microsome Fmax [2]: 57%
Structure (SMILES): Cc1cnc(-c2cc(O[C@@H]3CCOC3)cc(C(=O)N[C@H](C)c3cnc(C(F)(F)F)nc3)c2)s1 [Example 11, 3-(5-Methyl-1,3-thiazol-2-yl)-5-[(3R)-tetrahydrofuran-3-yloxy]-N-{(1R)-1-[2-(trifluoromethyl)pyrimidin-5-yl]ethyl}benzamide]
Vaginal hyperalgesia compared to vehicle-treated animals [3]: decreased vaginal hyperalgesia

Rat hepatocyte Fmax [1]: 64% | Human liver microsome Fmax [2]: 90%
Structure (SMILES): Cc1cnc(-c2cc(OC(C)C(C)O)cc(C(=O)N[C@H](C)c3cnc(C(F)(F)F)nc3)c2)s1 (single isomer, unassigned) [Example 340]

Rat hepatocyte Fmax [1]: 56% | Human liver microsome Fmax [2]: 67%
Structure (SMILES): Cc1cnc(-c2cc(O[C@H]3CCOC3)cc(C(=O)N[C@H](C)c3cnc(C(F)(F)F)nc3)c2)s1 [Example 26, 3-(5-methyl-1,3-thiazol-2-yl)-5-[(3S)-tetrahydrofuran-3-yloxy]-N-{(1R)-1-[2-(trifluoromethyl)pyrimidin-5-yl]ethyl}benzamide]

Rat hepatocyte Fmax [1]: 52% | Human liver microsome Fmax [2]: 94%
Structure (SMILES): Cc1cnc(-c2cc(OC(C)C(C)O)cc(C(=O)N[C@H](C)c3cnc(C(F)(F)F)nc3)c2)s1 (single isomer, unassigned) [Example 339]

Second part, the compound before the results:

Structure (SMILES): Cc1cnc(-c2cc(OC(C)C(C)O)cc(C(=O)N[C@H](C)c3ccc(C(F)(F)F)nn3)c2)s1 (single isomer, unassigned) [Example 183]
Rat hepatocyte Fmax [1]: 43% | Human liver microsome Fmax [2]: 74%

Structure (SMILES): CCc1cnc(-c2cc(OC[C@H]3CCCO3)cc(C(=O)N[C@H](C)c3cnc(C)cn3)c2)s1 [Example 277, 3-(5-ethyl-1,3-thiazol-2-yl)-N-[(1R)-1-(5-methypyrazin-2-yl)ethyl]-5-[(3S)-tetrahydrofuran-3-ylmethoxy]benzamide]
IC50 [4]: 6 nM | IC50 [5]: 96 nM

Structure (SMILES): CCc1cnc(-c2cc(OC[C@H]3CN(C)CCO3)cc(C(=O)N[C@H](C)c3ccc(C(F)(F)F)nn3)c2)s1 [Example 419, 3-(5-ethyl-1,3-thiazol-2-yl)-5-{[(2R)-4-methyl-morpholin-2-yl]methoxy}-N-{(1R)-1-[6-(trifluoromethyl)pyridazin-3-yl]ethyl} benzamide]
Rat hepatocyte Fmax [1]: 51% | Human liver microsome Fmax [2]: 74%

Structure (SMILES): COc1cc(C(C)C)c(Oc2cnc(N)nc2N)cc1S(N)(=O)=O [AF-219]
taste disturbances in treated subjects [6]: taste disturbances

— patent publication US10202369B2, “1,3-thiazol-2-yl substituted benzamides” (BAYER AKTIENGESELLSCHAFT, priority 2014, dated 2019)
